# Data taken from patent US8846694B2, “Pyrrolidone derivatives for use as MetAP-2 inhibitors” (Merck Patent GmbH, priority 2008, dated 2014).
# Counter-ions that a name gives are not always drawn.
# Biological target: MetAP-2 (Homo sapiens, UniProt P50579)
# Experiment: MetAP-2 activity measurement (coupled enzymatic reactions, substrate Met-Arg-Ser, photometric at 450 nm)
# Format: biochemical
# Details: read-out: IC50 enzyme (Inhibition of MetAP-2)
# Description: MetAP-2 Activity Measurement
# The MetAP-2 activity is determined by coupling enzymatic reactions. The tripeptide Met-Arg-Ser (MAS) is employed as substrate. The methionine liberated is firstly converted into Metox and H2O2 by L-aminooxidase (AAO). In the second step, the peroxidase (POD) with the aid of the H2O2 catalyses the oxidation of the leukodye dianisidine to dianisidineox, the increase of which is detected photometrically at 450 nm.
# MetAP-2 activity can be recorded continuously as kinetics. The reaction scheme illustrates that one mol of dianisidineox is formed per mol of methionene. The MetAP-2 enzyme activity can therefore be calculated directly as Δ absorption per time unit. […] of the MetAP-2 activity (mol of Met/time unit) is possible with the aid of the dianisidineox extinction coefficient.
# The change in extinction per time unit is depicted graphically and a slope calculation is carried out in the visually linear region of the reaction.
# Sequence of MetAP-2 (P50579 whole entry, species assumed): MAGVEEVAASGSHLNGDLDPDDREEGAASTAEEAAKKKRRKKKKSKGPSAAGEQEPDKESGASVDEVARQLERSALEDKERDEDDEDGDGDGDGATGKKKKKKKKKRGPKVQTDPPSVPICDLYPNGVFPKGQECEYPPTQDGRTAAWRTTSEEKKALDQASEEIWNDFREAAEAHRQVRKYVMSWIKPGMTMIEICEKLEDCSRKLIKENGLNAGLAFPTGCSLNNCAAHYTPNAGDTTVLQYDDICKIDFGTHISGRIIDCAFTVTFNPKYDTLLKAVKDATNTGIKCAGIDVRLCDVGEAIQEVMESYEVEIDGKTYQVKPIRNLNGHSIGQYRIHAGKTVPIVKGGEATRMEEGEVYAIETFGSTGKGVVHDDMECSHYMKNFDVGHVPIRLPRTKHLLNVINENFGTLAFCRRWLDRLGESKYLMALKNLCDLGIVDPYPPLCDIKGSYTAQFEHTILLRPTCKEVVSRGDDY
row,IC50,SMILES
1,1000 to 10000 nM,"CC(C)(C)OC(=O)N[C@@H](Cc1c[nH]cn1)C(=O)Nc1ccc2cccc(OC[C@H]3CCCN3c3ncnc4[nH]cnc34)c2c1 [A163, tert-Butyl ((S)-2-(1H-imidazol-4-yl)-1-{8-[(R)-1-(9H-purin-6-yl)pyrrolidin-2-ylmethoxy]-naphthalen-2-ylcarbamoyl}ethyl)carbamate]"
2,1000 to 10000 nM,"CC1(C)Cc2cccc(OC[C@H]3CCCN3c3ncnc4[nH]cnc34)c2O1 [A72, 6-[(R)-2-(2,2-Dimethyl-2,3-dihydrobenzofuran-7-yloxymethyl)pyrro!idin-1-yl]-9H-purine]"
3,1000 to 10000 nM,"FC1(F)C[C@H](COc2cccc3ccccc23)N(c2ncnc3[nH]cnc23)C1 [A8, 6-[(R)-4,4-difluoro-2-(naphthalen-1-yloxymethyl)pyrrolidin-1-yl]-9H-purine]"
4,10 to 1000 nM,"c1ccc2c(c1)[nH]c1cccc(OC[C@H]3CCCN3c3ncnc4[nH]cnc34)c12 [A38, 4-[(R)-1-(9H-Purin-6-yl)pyrrolidin-2-ylmethoxy]-9H-carbazole]"
5,10 to 1000 nM,"N#CCCN1CCN(Cc2ccc(OC[C@H]3CCCN3c3ncnc4[nH]cnc34)c3ccccc23)CC1 [A128, 3-(4-{4-[(R)-1-(9H-Purin-6-yl)pyrrolidin-2-yl-methoxy]naphthalen-1-ylmethyl}piperazin-1-yl)-propionitrile]"
6,10 to 1000 nM,"CC(=O)N(Cc1ccc(OC[C@H]2CCCN2c2ncnc3[nH]cnc23)c2ccccc12)CC(O)CO (stereo partly drawn) [A100, N-(2,3-Dihydroxypropyl)-N-{4-[(R)-1-(9H-purin-6-yl)pyrrolidin-2-ylmethoxy]naphthalen-1-yl-methyl}acetamide]"
7,10 to 1000 nM,"CCN(CC)C(=O)c1cc2cccc(OC[C@H]3CCCN3c3ncnc4[nH]cnc34)c2cc1O [A127, N,N-Diethyl-3-hydroxy-5-[(R)-1-(9H-purin-6-yl)-pyrrolidin-2-ylmethoxy]naphthalene-2-carboxamide]"
8,10 to 1000 nM,"O=C(O)/C=C1/CCc2c(OC[C@H]3CCCN3c3ncnc4[nH]cnc34)cccc2C1=O [A53, [1-Oxo-5-[(R)-1-(9H-purin-6-yl)pyrrolidin-2-yl-methoxy]-3,4-dihydro-1H-naphthalen-(2Z)-ylidene]acetic acid]"
9,10 to 1000 nM,"FC(F)(F)c1ccc2nccc(OC[C@H]3CCCN3c3ncnc4[nH]cnc34)c2c1 [A123, 4-[(R)-1-(9H-Purin-6-yl)pyrrolidin-2-ylmethoxy]-6-trifluoromethylquinoline]"
10,> 10000 nM,CN(C[C@H]1CCCN1c1ncnc2[nH]cnc12)c1cccc(F)c1 [A21]
11,10 to 1000 nM,"CN(C)C(=O)C[C@H]1CCc2c(OC[C@H]3CCCN3c3ncnc4[nH]cnc34)cccc2C1=O [A175, N,N-Dimethyl-2-{(R)-1-oxo-5-[(R)-1-(9H-purin-6-yl)pyrrolidin-2-ylmethoxy]-1,2,3,4-tetrahydro-naphthalen-2-yl}acetamide]"
12,10 to 1000 nM,"NCCCCCC(=O)N1CCc2cccc(OC[C@H]3CCCN3c3ncnc4[nH]cnc34)c2C1 [A138, 6-Amino-1-{8-[(R)-1-(9H-purin-6-yl)pyrrolidin-2-ylmethoxy]-3,4-dihydro-1H-isoquinolin-2-yl}-hexan-1-one]"
13,10 to 1000 nM,"c1ccc2c(OC[C@H]3CCCN3c3ncnc4[nH]cnc34)ccc(CN3CCN(C4CCCC4)CC3)c2c1 [A112, 6-{(R)-2-[4-(4-Cyclopentylpiperazin-1-yl-methyl)naphthalen-1-yloxymethyl]pyrrolidin-1-yl}-9H-purine]"
14,10 to 1000 nM,"O=C1c2cccc(OC[C@H]3CCCN3c3ncnc4[nH]cnc34)c2CC[C@H]1Cc1cc[nH]n1 [A130, (S)-5-[(R)-1-(9H-Purin-6-yl)pyrrolidin-2-yl-methoxy]-2-(1H-pyrazol-3-ylmethyl)-3,4-dihydro-2H-naphthalen-1-one]"
15,10 to 1000 nM,"O=C1c2cccc(OC[C@H]3CCCN3c3ncnc4[nH]cnc34)c2CC[C@H]1Cc1c[nH]cn1 [A97, (S)-2-(1H-Imidazol-4-y!methyl)-5-[(R)-1-(9H-purin-6-yl)pyrrolidin-2-ylmethoxy]-3,4-dihydro-2H-naphthalen-1-one]"
16,10 to 1000 nM,"COC(=O)c1c(OC[C@H]2CCCN2c2ncnc3[nH]cnc23)c2cc(F)ccc2n1C [A151, Methyl 5-fluoro-1-methyl-3-[(R)-1-(9H-purin-6-yl)pyrrolidin-2-ylmethoxy]-1H-indole-2-carboxylate]"
17,1000 to 10000 nM,"Clc1ccccc1CCC1CCCN1c1ncnc2[nH]cnc12 (racemic) [A5, 6-{2-[2-(2-chlorophenyl)ethyl]pyrrolidin-1-yl}-9H-purine]"
18,> 10000 nM,"CCc1nc2c(N3CCC[C@@H]3COc3ccccc3Cl)ncnc2[nH]1 [A17, 6-[(R)-2-(2-Chlorophenoxymethyl)pyrrolidin-1-yl]-8-ethyl-9H-purine HCl]"
19,10 to 1000 nM,"CC(=O)N(CCN1CCOCC1)Cc1ccc(OC[C@H]2CCCN2c2ncnc3[nH]cnc23)c2ccccc12 [A92, N-(2-Morpholin-4-ylethyl)-N-{4-[(R)-1-(9H-purin-6-yl)pyrrolidin-2-ylmethoxy]naphthalen-1-yl-methyl}acetamide]"

row,IC50,SMILES
1,10 to 1000 nM,"[O-][n+]1c(C(F)(F)F)cc(OC[C@H]2CCCN2c2ncnc3[nH]cnc23)c2cc(F)ccc21 [A140, 6-Fluoro-4-[(R)-1-(9H-purin-6-yl)pyrrolidin-2-yl-methoxy]-2-trifluoromethylquinoline 1-oxide]"
2,1000 to 10000 nM,"c1ccc2c(NCCN3CCOCC3)ncc(OC[C@H]3CCCN3c3ncnc4[nH]cnc34)c2c1 [A172, (2-Morpholin-4-ylethyl)-{4-[(R)-1-(9H-purin-6-yl)-pyrrolidin-2-ylmethoxy]isoquinolin-1-yl}amine]"
3,10 to 1000 nM,"O=C(NC1CCC1)c1cc(OC[C@H]2CCCN2c2ncnc3[nH]cnc23)c2ccccc2n1 [A80, N-Cyclobutyl-4-[(R)-1-(9H-purin-6-yl)pyrrolidin-2-ylmethoxy]quinoline-2-carboxamide]"
4,10 to 1000 nM,"FC(F)(F)Oc1ccc2nccc(OC[C@H]3CCCN3c3ncnc4[nH]cnc34)c2c1 [A137, 4-[(R)-1-(9H-Purin-6-yl)pyrrolidin-2-ylmethoxy]-6-trifluoromethoxyquinoline]"
5,1000 to 10000 nM,"NC(=O)C[C@@H](N)C(=O)Nc1ccc2cccc(OC[C@H]3CCCN3c3ncnc4[nH]cnc34)c2c1 [A177, (R)-2-Amino-N1-{8-[(R)-1-(9H-purin-6-yl)-pyrrolidin-2-ylmethoxy]naphthalen-2-yl}succinamide]"
6,10 to 1000 nM,"Cn1ccc(CN(C=O)Cc2ccc(OC[C@H]3CCCN3c3ncnc4[nH]cnc34)c3ccccc23)n1 [A102, N-(1-Methyl-1H-pyrazol-3-ylmethyl)-N-{4-[(R)-1-(9H-purin-6-yl)pyrrolidin-2-ylmethoxy]-naphthalen-1-ylmethyl}formamide]"
7,10 to 1000 nM,"CC(=O)c1cc2cccc(OC[C@H]3CCCN3c3ncnc4[nH]cnc34)c2o1 [A41, 1-{7-[(R)-1-(9H-Purin-6-yl)pyrrolidin-2-yl-methoxy]benzofuran-2-yl}ethanone]"
8,1000 to 10000 nM,"F[C@H]1C[C@H](COc2cccc3ccccc23)N(c2ncnc3[nH]cnc23)C1 [A28, 6-[(2R,4S)-4-Fluoro-2-(naphthalen-1-yl-oxymethyl)pyrrolidin-1-yl]-9H-purine]"
9,1000 to 10000 nM,"c1cnc2c(OC[C@H]3CCCN3c3ncnc4[nH]cnc34)cccc2c1 [A43, 8-[(R)-1-(9H-Purin-6-yl)pyrrolidin-2-yl-methoxy]quinoline]"
10,1000 to 10000 nM,"c1ccc(-c2nc3ccccc3s2)c(OC[C@H]2CCCN2c2ncnc3[nH]cnc23)c1 [A103, 6-[(R)-2-(2-Benzothiazol-2-ylphenoxymethyl)-pyrrolidin-1-yl]-9H-purine]"
11,10 to 1000 nM,"Cn1ncc(Cl)c1C[C@H]1CCc2c(OC[C@H]3CCCN3c3ncnc4[nH]cnc34)cccc2C1=O [A126, (R)-2-(4-Chloro-2-methyl-2H-pyrazol-3-yl-methyl)-5-[(R)-1-(9H-purin-6-yl)pyrrolidin-2-yl-methoxy]-3,4-dihydro-2H-naphthalen-1-one]"
12,10 to 1000 nM,CN(C)CCCNc1ncc(OC[C@H]2CCCN2c2ncnc3[nH]cnc23)c2ccccc12 [A182]
13,10 to 1000 nM,"CC(=O)N(CCN1CCCCC1)Cc1ccc(OC[C@H]2CCCN2c2ncnc3[nH]cnc23)c2ccccc12 [A98, N-(2-Piperidin-1-ylethyl)-N-{4-[(R)-1-(9H-purin-6-yl)pyrrolidin-2-ylmethoxy]naphthalen-1-yl-methyl]acetamide]"
14,10 to 1000 nM,"c1cc(OC[C@H]2CCCN2c2ncnc3[nH]cnc23)c2cnccc2c1 [A87, 8-[(R)-1-(9H-Purin-6-yl)pyrrolidin-2-yl-methoxy]isoquinoline]"
15,1000 to 10000 nM,"O=C(NC1CC1)c1cc(OC[C@H]2CCCN2c2ncnc3[nH]cnc23)c2ccccc2n1 [A14, N-cyclopropyl-4-[(R)-1-(9H-purin-6-yl)pyrrolidin-2-ylmethoxy]quinoline-2-carboxamide hydrochloride]"
16,> 10000 nM,"c1ccc(-c2ccc(OC[C@H]3CCCN3c3ncnc4[nH]cnc34)cc2)cc1 [A64, 6-[(R)-2-(Biphenyl-4-yloxymethyl)pyrrolidin-1-yl]-9H-purine]"
17,> 10000 nM,"c1ccc2c(NC[C@H]3CCCN3c3ncnc4[nH]cnc34)cccc2c1 [A108, Naphthalen-1-yl[(R)-1-(9H-purin-6-yl)pyrrolidin-2-ylmethyl]amine]"
18,> 10000 nM,"Cn1c(C(=O)OCCc2ccc(F)cc2)c(OC[C@H]2CCCN2c2ncnc3[nH]cnc23)c2cc(F)ccc21 [A198, 2-(4-Fluorophenyl)ethyl 5-fluoro-1-methyl-3-[(R)-1-(9H-purin-6-yl)pyrrolidin-2-ylmethoxy]-1H-indole-2-carboxylate]"
19,> 10000 nM,"Fc1ccc(CCNCCn2cc(OC[C@H]3CCCN3c3ncnc4[nH]cnc34)c3cc(F)ccc32)cc1 [A203, [2-(4-Fluorophenyl)ethyl]-(2-{5-fluoro-3-[(R)-1-(9H-purin-6-yl)pyrrolidin-2-ylmethoxy]indol-1-yl}-ethyl)amine]"
